From paper PMC3297363 (Journal of Medicinal Chemistry, 2012)
pIC50: −log10 of the molar value. Where two headings read alike, the source gives them in different places. Blank lines part the entries; values can stand above or below the molecule they belong to.

What was measured:
PfNDH2 = biological target: T1, PfNDH2 (Plasmodium falciparum, UniProt Q8I302); type: biochemical; conditions: PfNDH2 enzyme
T1 sequence (Q8I302 1-533): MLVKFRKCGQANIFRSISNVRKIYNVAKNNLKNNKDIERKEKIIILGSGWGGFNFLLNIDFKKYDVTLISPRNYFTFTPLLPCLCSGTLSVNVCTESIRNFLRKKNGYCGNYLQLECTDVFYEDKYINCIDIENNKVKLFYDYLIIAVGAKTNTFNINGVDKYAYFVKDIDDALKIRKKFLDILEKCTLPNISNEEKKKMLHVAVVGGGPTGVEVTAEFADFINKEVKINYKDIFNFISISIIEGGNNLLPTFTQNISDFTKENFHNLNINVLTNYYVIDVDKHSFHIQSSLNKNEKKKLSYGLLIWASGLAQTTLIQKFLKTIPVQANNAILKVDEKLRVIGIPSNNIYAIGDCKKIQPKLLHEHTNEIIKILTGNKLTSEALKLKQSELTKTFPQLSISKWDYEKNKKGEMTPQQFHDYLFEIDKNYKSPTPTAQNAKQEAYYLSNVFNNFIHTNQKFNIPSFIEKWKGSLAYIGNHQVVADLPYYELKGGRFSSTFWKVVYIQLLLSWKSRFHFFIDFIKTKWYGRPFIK

[1] = test system: TM90C2B strain of P. falciparum; test: In vitro antimalarial activity versus atovaquone resistant TM90C2B; type: cell-based; conditions: Plasmodium falciparum, read-out: IC50 in TM90C2B strain
[2] = test system: 3D7 strain of P. falciparum; test: In vitro antimalarial activity versus 3D7 P. falciparum; type: cell-based, Plasmodium falciparum

IC50 (nM) PfNDH2 (PfNDH2): shows no PfNDH2
SMILES: O=c1c(-c2ccc(Oc3ccc(OC(F)(F)F)cc3)cc2)c(CO)[nH]c2ccccc12 [compound 25]

SMILES: O=C1C(O)=C([C@H]2CC[C@H](c3ccc(Cl)cc3)CC2)C(=O)c2ccccc21 [atovaquone]
pIC50 [1]: 4.92

IC50 ([2]; Plasmodium falciparum, 3D7, read-out: IC50 (nM) 3D7 ± SD, 3D7 strain of P. falciparum, in vitro): > 350 nM
SMILES: COc1cccc2[nH]c(-c3ccc(Cc4ccc(OC(F)(F)F)cc4)cc3)c(C)c(=O)c12 [6m]

IC50 ([2]; read-out: IC50 (nM) 3D7 ± SD, 3D7 strain of P. falciparum, in vitro): 37 nM
SMILES: COc1ccc(Cc2ccc(-c3[nH]c4ccccc4c(=O)c3C)cc2)cc1 [6g]
